Test results reported in PubChem BioAssay (NCI).
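Step 1: Grow cells in 96-well plates. Step 2: Expose to compound for 48 hours at 5 concentrations. Step 3: Interpolate endpoints linearly; if unreached, use highest concentration. TGI marks complete inhibition of growth.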

Legend:
Test in all cases: growth of human tumour cells (NCI), 48 h
786-0 renal = system: 786-0 renal
A498 renal = system: A498 renal
A549 NSCLC = system: A549 NSCLC
ACHN renal = system: ACHN renal
CAKI-1 renal = system: CAKI-1 renal
CCRF-CEM leukemia = system: CCRF-CEM leukemia
COLO 205 colon = system: COLO 205 colon
DLD-1 colon = system: DLD-1 colon
DMS 114 small cell lung = system: DMS 114 small cell lung
DMS 273 small cell lung = system: DMS 273 small cell lung
EKVX NSCLC = system: EKVX NSCLC
HCC-2998 colon = system: HCC-2998 colon
HCT-116 colon = system: HCT-116 colon
HCT-15 colon = system: HCT-15 colon
HL-60(TB) leukemia = system: HL-60(TB) leukemia
HOP-18 NSCLC = system: HOP-18 NSCLC
HOP-92 NSCLC = system: HOP-92 NSCLC
HT29 colon = system: HT29 colon
IGROV1 ovarian = system: IGROV1 ovarian
K-562 leukemia = system: K-562 leukemia
KM12 colon = system: KM12 colon
KM20L2 colon = system: KM20L2 colon
LOX IMVI melanoma = system: LOX IMVI melanoma
LXFL 529 NSCLC = system: LXFL 529 NSCLC
M14 melanoma = system: M14 melanoma
M19-MEL melanoma = system: M19-MEL melanoma
MALME-3M melanoma = system: MALME-3M melanoma
MOLT-4 leukemia = system: MOLT-4 leukemia
NCI-H226 lung = system: NCI-H226 lung
NCI-H23 lung = system: NCI-H23 lung
NCI-H460 lung = system: NCI-H460 lung
NCI-H522 lung = system: NCI-H522 lung
OVCAR-3 ovarian = system: OVCAR-3 ovarian
OVCAR-4 ovarian = system: OVCAR-4 ovarian
OVCAR-5 ovarian = system: OVCAR-5 ovarian
OVCAR-8 ovarian = system: OVCAR-8 ovarian
RXF-631 renal = system: RXF-631 renal
SF-268 CNS = system: SF-268 CNS
SF-295 CNS = system: SF-295 CNS
SF-539 CNS = system: SF-539 CNS
SK-MEL-2 melanoma = system: SK-MEL-2 melanoma
SK-MEL-28 melanoma = system: SK-MEL-28 melanoma
SK-MEL-5 melanoma = system: SK-MEL-5 melanoma
SK-OV-3 ovarian = system: SK-OV-3 ovarian
SN12C renal = system: SN12C renal
SNB-19 CNS = system: SNB-19 CNS
SNB-75 CNS = system: SNB-75 CNS
SNB-78 CNS = system: SNB-78 CNS
SR leukemia = system: SR leukemia
SW-620 colon = system: SW-620 colon
TK-10 renal = system: TK-10 renal
U251 CNS = system: U251 CNS
UACC-257 melanoma = system: UACC-257 melanoma
UACC-62 melanoma = system: UACC-62 melanoma
UO-31 renal = system: UO-31 renal
HOP-62 NSCLC = system: HOP-62 NSCLC
RPMI-8226 leukemia = system: RPMI-8226 leukemia
RXF 393 renal = system: RXF 393 renal

COC(=O)C1CC2c3c(c4ccccc4n3C)CC(C1=O)N2C (stereo unspecified)
TGI (786-0 renal): > 100 µM | TGI (A498 renal): > 100 µM | TGI (A549 NSCLC): > 100 µM | TGI (ACHN renal): > 100 µM | TGI (CAKI-1 renal): > 100 µM | TGI (CCRF-CEM leukemia): > 100 µM | TGI (COLO 205 colon): 32.5 µM | TGI (DLD-1 colon): > 100 µM | TGI (DMS 114 small cell lung): 60.7 µM | TGI (DMS 273 small cell lung): 43.6 µM | TGI (EKVX NSCLC): > 100 µM | TGI (HCC-2998 colon): > 100 µM | TGI (HCT-116 colon): 92.8 µM | TGI (HCT-15 colon): 50.7 µM | TGI (HL-60(TB) leukemia): 68.5 µM | TGI (HOP-18 NSCLC): > 100 µM | TGI (HOP-92 NSCLC): > 100 µM | TGI (HT29 colon): > 100 µM | TGI (IGROV1 ovarian): > 100 µM | TGI (K-562 leukemia): > 100 µM | TGI (KM12 colon): > 100 µM | TGI (KM20L2 colon): > 100 µM | TGI (LOX IMVI melanoma): > 100 µM | TGI (LXFL 529 NSCLC): > 100 µM | TGI (M14 melanoma): > 100 µM | TGI (M19-MEL melanoma): > 100 µM | TGI (MALME-3M melanoma): > 100 µM | TGI (MOLT-4 leukemia): > 100 µM | TGI (NCI-H226 lung): > 100 µM | TGI (NCI-H23 lung): > 100 µM | TGI (NCI-H460 lung): > 100 µM | TGI (NCI-H522 lung): 34.8 µM | TGI (OVCAR-3 ovarian): > 100 µM | TGI (OVCAR-4 ovarian): > 100 µM | TGI (OVCAR-5 ovarian): > 100 µM | TGI (OVCAR-8 ovarian): > 100 µM | TGI (RXF-631 renal): > 100 µM | TGI (SF-268 CNS): > 100 µM | TGI (SF-295 CNS): > 100 µM | TGI (SF-539 CNS): > 100 µM | TGI (SK-MEL-2 melanoma): > 100 µM | TGI (SK-MEL-28 melanoma): > 100 µM | TGI (SK-MEL-5 melanoma): > 100 µM | TGI (SK-OV-3 ovarian): > 100 µM | TGI (SN12C renal): > 100 µM | TGI (SNB-19 CNS): > 100 µM | TGI (SNB-75 CNS): > 100 µM | TGI (SNB-78 CNS): > 100 µM | TGI (SR leukemia): 87.6 µM | TGI (SW-620 colon): > 100 µM | TGI (TK-10 renal): > 100 µM | TGI (U251 CNS): > 100 µM | TGI (UACC-257 melanoma): > 100 µM | TGI (UACC-62 melanoma): > 100 µM | TGI (UO-31 renal): 69 µM

Cn1ccnc1CCc1ccc(Cl)cc1Cl
TGI (786-0 renal): > 100 µM | TGI (A498 renal): > 100 µM | TGI (A549 NSCLC): > 100 µM | TGI (ACHN renal): > 100 µM | TGI (CAKI-1 renal): > 100 µM | TGI (CCRF-CEM leukemia): > 100 µM | TGI (COLO 205 colon): > 100 µM | TGI (DLD-1 colon): > 100 µM | TGI (DMS 114 small cell lung): > 100 µM | TGI (DMS 273 small cell lung): > 100 µM | TGI (EKVX NSCLC): > 100 µM | TGI (HCC-2998 colon): > 100 µM | TGI (HCT-116 colon): > 100 µM | TGI (HCT-15 colon): > 100 µM | TGI (HL-60(TB) leukemia): > 100 µM | TGI (HOP-18 NSCLC): > 100 µM | TGI (HOP-62 NSCLC): > 100 µM | TGI (HOP-92 NSCLC): > 100 µM | TGI (HT29 colon): > 100 µM | TGI (IGROV1 ovarian): > 100 µM | TGI (K-562 leukemia): > 100 µM | TGI (KM12 colon): > 100 µM | TGI (KM20L2 colon): > 100 µM | TGI (LOX IMVI melanoma): > 100 µM | TGI (LXFL 529 NSCLC): > 100 µM | TGI (M14 melanoma): > 100 µM | TGI (M19-MEL melanoma): > 100 µM | TGI (MALME-3M melanoma): > 100 µM | TGI (MOLT-4 leukemia): > 100 µM | TGI (NCI-H226 lung): > 100 µM | TGI (NCI-H23 lung): > 100 µM | TGI (NCI-H460 lung): > 100 µM | TGI (NCI-H522 lung): > 100 µM | TGI (OVCAR-3 ovarian): > 100 µM | TGI (OVCAR-4 ovarian): > 100 µM | TGI (OVCAR-5 ovarian): > 100 µM | TGI (OVCAR-8 ovarian): > 100 µM | TGI (RPMI-8226 leukemia): > 100 µM | TGI (RXF 393 renal): > 100 µM | TGI (RXF-631 renal): > 100 µM | TGI (SF-268 CNS): > 100 µM | TGI (SF-295 CNS): > 100 µM | TGI (SF-539 CNS): > 100 µM | TGI (SK-MEL-2 melanoma): > 100 µM | TGI (SK-MEL-28 melanoma): > 100 µM | TGI (SK-OV-3 ovarian): > 100 µM | TGI (SN12C renal): > 100 µM | TGI (SNB-19 CNS): > 100 µM | TGI (SNB-75 CNS): > 100 µM | TGI (SNB-78 CNS): > 100 µM | TGI (SW-620 colon): > 100 µM | TGI (TK-10 renal): > 100 µM | TGI (U251 CNS): > 100 µM | TGI (UACC-257 melanoma): > 100 µM | TGI (UACC-62 melanoma): > 100 µM | TGI (UO-31 renal): > 100 µM
